Here are results for nine molecules from patent publication US5523315A, “N-(hydroxyethyl)butanediamide derivatives” (Bio-Mega/Boehringer Ingelheim Research Inc., priority 1993, dated 1996).

The assay concerns the target T1, human renin (Homo sapiens, UniProt P00797).
T1 construct: A human plasma pool is used as the source of both the substrate (angiotensinogen) and the enzyme (renin); from tissue; host or cells: pooled human plasma
T1 sequence (P00797 67-406): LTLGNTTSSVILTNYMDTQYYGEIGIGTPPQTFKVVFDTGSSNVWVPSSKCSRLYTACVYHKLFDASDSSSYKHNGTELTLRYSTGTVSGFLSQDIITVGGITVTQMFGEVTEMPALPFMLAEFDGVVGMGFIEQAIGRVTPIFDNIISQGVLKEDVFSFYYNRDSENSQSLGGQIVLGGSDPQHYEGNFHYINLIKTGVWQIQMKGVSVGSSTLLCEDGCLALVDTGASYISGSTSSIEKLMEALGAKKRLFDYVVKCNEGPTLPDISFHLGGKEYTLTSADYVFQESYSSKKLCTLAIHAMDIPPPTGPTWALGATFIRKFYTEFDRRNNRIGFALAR
Kind of assay: plasma renin assay (inhibition of human renin; angiotensin I generated, measured by radioimmunoassay). It counts as biochemical. The conditions noted are these: human plasma pool, pH 6.0, 2 h incubation at 37°. An outline of the steps:
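Pooled human plasma supplies both renin and angiotensinogen; inhibitor in MES/1% HSA buffer (1% DMSO final) incubated 2 h at 37° at pH 6.0. Angiotensin I generated quantified by radioimmunoassay, inhibition relative to no-inhibitor control, IC50 by nonlinear regression.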
`CC(C)C[C@H](O)[C@H](O)[C@H](CC1CCCCC1)NC(=O)[C@@H](CC(=O)N(CC(=O)N(C)C)CC1(O)CCCCC1)Cc1csc(N)n1` [Compound 46, N^4-[2-(dimethylamino)-2-oxoethyl]-N^4-[(1-hydroxycyclohexyl)methyl]-N^1-[1(S)-(cyclohexylmethyl)-2(R),3(S)-dihydroxy-5-methylhexyl]-2(R)-[(2-amino-4-thiazolyl)methyl]butanediamide] returned an IC50 of 1.3 nM.
For the molecule `CC(C)C[C@H](O)[C@H](O)[C@H](CC1CCCCC1)NC(=O)[C@@H](CC(=O)NCC1(O)CCCCC1)CC1CC1` [Compound 17, N^4-[(1-hydroxycyclohexyl)methyl]-N^1-[1(S)-(cyclohexylmethyl)-2(R),3(S)-dihydroxy-5-methylhexyl]-2(R)-(cyclopropylmethyl)butanediamide], the concentration for half-maximal inhibition (IC50) is 94 nM.
`CC(C)C[C@H](O)[C@H](O)[C@H](CC1CCCCC1)NC(=O)[C@@H](CC(=O)N(CC1CCCCC1)CC(C)(C)O)CC1CC1` [Compound 32, N^4-(cyclohexylmethyl)-N^4-(2-hydroxy-2-methylpropyl)-N^1-[1(S)-(cyclohexylmethyl)-2(R),3(S)-dihydroxy-5-methylhexyl]-2(R)-(cyclopropylmethyl)butanediamide] registered a half-maximal inhibitory concentration (IC50) of 46 nM.
Next, `CC(C)C[C@H](O)[C@H](O)[C@H](CC1CCCCC1)NC(=O)[C@@H](CC(=O)N[C@H](CO)Cc1ccccc1)CC1CC1` [Compound 14, N^4-(S)-[1-(hydroxymethyl)-2-phenylethyl]-N^1-[1(S)-(cyclohexylmethyl)-2(R),3(S)-dihydroxy-5-methylhexyl]-2(R)-(cyclopropylmethyl)butanediamide]: 79 nM; `CC(C)C[C@H](O)[C@H](O)[C@H](CC1CCCCC1)NC(=O)[C@@H](CC(=O)N(CC(C)O)CC1CCCCC1)Cc1cscn1` (single isomer, unassigned) [Compound 40, N^4-(cyclohexylmethyl)-N^4-[2(S or R)-hydroxypropyl]-N^1-[1(S)-(cyclohexylmethyl)-2(R),3(S)-dihydroxy-5-methylhexyl]-2(R)-(4-thiazolylmethyl)butanediamide]: 11 nM.
`CC(C)C[C@H](O)[C@H](O)[C@H](CC1CCCCC1)NC(=O)[C@@H](CC(=O)N(Cc1ccccc1)CC(C)(C)O)Cc1csc(N)n1` [Compound 54, N^4-benzyl-N^4-(2-hydroxy-2-methylpropyl)-N^1-[1(S)-(cyclohexylmethyl)-2(R),3(S)-dihydroxy-5-methylhexyl]-2(R)-[(2-amino-4-thiazolyl)methyl]-butanediamide] had an IC50 of 26 nM.
`CC(C)C[C@H](O)[C@H](O)[C@H](CC1CCCCC1)NC(=O)[C@@H](CC(=O)N(CC(=O)N(C)C)CC1(O)CCCCC1)CC1CC1` [Compound 23, N^4-[(1-hydroxycyclohexyl)methyl]-N^4-[2-(dimethylamino)-2-oxoethyl]-N^1-[1(S)-(cyclohexylmethyl)-2(R),3(S)-dihydroxy-5-methylhexyl]-2(R)-(cyclopropylmethyl)butanediamide] came in with an IC50 of 16 nM.
In the case of `CC(C)C[C@H](O)[C@H](O)[C@H](CC1CCCCC1)NC(=O)[C@@H](CC(=O)N(Cc1ccc2c(c1)OCO2)CC1(O)CCCCC1)Cc1cscn1` [Compound 33, N^4-[(1-hydroxycyclohexyl)methyl]-N^4-[(3,4-methylenedioxyphenyl)methyl]-N^1-[1(S)-(cyclohexylmethyl)-2(R),3(S)-dihydroxy-5-methylhexyl]-2(R)-(4-thiazolylmethyl)butanediamide], inhibition was half-maximal at 11 nM (IC50).
Molecule `CC(C)C[C@H](O)[C@H](O)[C@H](CC1CCCCC1)NC(=O)[C@@H](CC(=O)N(CC1CCCCCC1)CC(C)(C)O)Cc1csc(N)n1` [Compound 48, N^4-(cycloheptylmethyl)-N^4-(2-hydroxy-2-methylpropyl)-N^1-[1(S)-(cyclohexylmethyl)-2(R),3(S)-dihydroxy-5-methylhexyl]-2(R)-[(2-amino-4-thiazolyl)methyl]butanediamide] came in with an IC50 of 5 nM.
